From article PMC5838106, “Cathelicidin promotes inflammation by enabling binding of self-RNA to cell surface scavenger receptors” (Scientific Reports, 2018) come the findings set out here.

Holding throughout (format): cell-based
Assay [1] concerns the target T1, SR-B1 (Homo sapiens, UniProt Q8WTV0).
T1 construct: endogenous in cells; host or cells: NHEK (primary neonatal human epidermal keratinocytes)
T1 sequence (Q8WTV0 1-509 isoform Q8WTV0-2): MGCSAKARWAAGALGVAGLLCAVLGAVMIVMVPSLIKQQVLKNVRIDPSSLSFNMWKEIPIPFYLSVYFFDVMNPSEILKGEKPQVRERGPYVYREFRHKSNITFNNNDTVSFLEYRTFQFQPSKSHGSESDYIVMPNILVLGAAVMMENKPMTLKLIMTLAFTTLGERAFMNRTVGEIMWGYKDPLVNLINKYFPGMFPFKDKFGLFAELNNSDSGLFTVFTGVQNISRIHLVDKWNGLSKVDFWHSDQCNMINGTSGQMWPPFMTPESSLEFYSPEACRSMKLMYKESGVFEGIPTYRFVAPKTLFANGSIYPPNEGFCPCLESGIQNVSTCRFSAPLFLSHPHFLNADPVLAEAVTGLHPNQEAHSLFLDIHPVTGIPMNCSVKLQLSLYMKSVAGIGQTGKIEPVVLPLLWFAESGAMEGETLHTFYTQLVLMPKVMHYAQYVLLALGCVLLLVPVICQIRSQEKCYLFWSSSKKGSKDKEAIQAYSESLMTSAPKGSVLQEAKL
The assay is described as follows: Proximity ligation assay for SR-B1 and U1 RNA. The note with it: NHEKs, peptide 2.5 μM 10 minutes, biotinylated U1 RNA 2.5 μg/mL, 4 °C, 1 hour. As to the method:
Figure 3 Cathelicidin enables dsRNA to associate with scavenger receptors. (a) Proximity ligation assay for SR-B1 and U1 RNA. NHEKs were cultured with various cathelicidin peptides (2.5 μM) for 10 minutes, then with biotinylated U1 RNA (2.5 μg/mL) at 4 °C for 1 hour before physical proximity of SR-B1 and U1 RNA was determined using a fluorescence-based PLA that produces a red fluorescent signal. Nuclei (blue) are counterstained with DAPI. Scale bar represents 10 μm. (b) Signal count of (a) in 5 visual fields. (c) Proximity ligation assay as in (a) but reaction is detecting proximity of LL37 and SR-A6. Scale bar represents 100 μm. (d) Signal count of proximity ligation assay performed as in (a), but between U1 RNA and the indicated scavenger receptors, each count is PLA complexes observed in 5 visual fields. (e) Skin sections from healthy subject (control), or lesional skin from a psoriasis patient (Psoriasis) were fixed and PLA performed for LL37 and SR-B1. […]
(§1) NHEKs seeded into 8 chamber slides (Thermo Fisher Scientific) were incubated with various combination of U1 RNA, poly(I:C), cathelicidin peptides, and fucoidan for 1 hour at 4 °C allowing binding, but not internalization. […] Fluorescent PLA signals were evaluated using fluorescence microscopy (described above). Signals are counted by Duolink ImageTool software version 1.0.1.2 (Sigma-aldrich).

Assay [2] addresses T1, SR-B1. As to the kind of experiment: Immunofluorescence localisation of U1 RNA with SR-B1. The note with it: NHEKs, 4 °C, 10 minutes with U1 RNA and peptide. The protocol: NHEKs were grown on 8-well chamber slides (Thermofisher Scientific). After indicated treatments, cells were fixed in 4% paraformaldehyde (PFA) (Thermofisher Scientific) for 10 minutes and blocked with 3% bovine serum albumin, 0.2 M Glycine (Sigma) with or without 1 mg/mL saponin (Sigma) prior to incubating with primary antibodies followed by appropriate 488- or 568-coupled secondary antibodies, or 488-streptavidin conjugate. Nuclei were counterstained with DAPI. All images were taken with an Olympus BX41 microscope (widefield), Zeiss LSM510 confocal microscope, or Nikon A1R Confocal STORM microscope as indicated.
Figure S3. a) NHEKs cultured at 4 °C for 10 minutes with U1 RNA and cathelicidin peptide. […]
(§2) RNA. NHEKs were cultured with various cathelicidin peptides (2.5 µM) for 10 minutes, then with biotinylated U1 RNA (2.5 µg/mL) at 4 °C for 1 hour before physical proximity of SR-A6 and U1 RNA was determined using a fluorescence-based PLA that produces a red fluorescent signal. […] PMA-treated THP1 were cultured with various cathelicidin peptides (3 µM) for 10 minutes, then with biotinylated U1 RNA (2.5 µg/mL) at 4 °C for 1 hour before physical proximity of U1 RNA and scavenger receptors was determined using a fluorescence-based PLA, each count is PLA complexes observed in 5 visual fields. f) NHEKs cultured at 37 °C that were stained immediately after or after 5 […]

The next assay has as its target T2, SR-A6 (Homo sapiens, UniProt Q9UEW3).
T2 construct: Proximity ligation assay for SR-A6 and U1; endogenous in cells; host or cells: NHEK (primary neonatal human epidermal keratinocytes)
T2 sequence (Q9UEW3 1-520): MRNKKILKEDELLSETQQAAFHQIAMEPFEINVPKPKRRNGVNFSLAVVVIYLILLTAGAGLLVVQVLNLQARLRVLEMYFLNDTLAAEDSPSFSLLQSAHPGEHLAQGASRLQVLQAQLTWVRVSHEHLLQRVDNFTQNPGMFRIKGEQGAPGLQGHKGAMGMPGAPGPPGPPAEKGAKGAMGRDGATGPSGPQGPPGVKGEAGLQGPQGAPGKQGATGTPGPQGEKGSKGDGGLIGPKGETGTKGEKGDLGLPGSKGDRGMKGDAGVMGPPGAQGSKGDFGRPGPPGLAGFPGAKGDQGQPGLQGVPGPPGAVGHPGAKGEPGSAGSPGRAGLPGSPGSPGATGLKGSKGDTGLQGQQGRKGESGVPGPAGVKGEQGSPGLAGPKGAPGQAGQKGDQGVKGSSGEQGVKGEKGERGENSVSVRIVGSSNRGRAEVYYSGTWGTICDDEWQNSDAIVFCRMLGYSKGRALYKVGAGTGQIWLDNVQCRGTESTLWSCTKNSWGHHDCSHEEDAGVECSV
As to the kind of experiment: Proximity ligation assay for SR-A6 and U1 RNA. As to conditions: NHEKs, peptide 2.5 μM 10 minutes, biotinylated U1 RNA 2.5 μg/mL, 4 °C, 1 hour. As to the method:
as §1, with “internalization. Unbound RNA was removed by washing with cold PBS. Cells were fixed with 4% PFA at 4 °C. Blocking buffer (Sigma) was used to prevent nonspecific antibody binding, and cells were incubated with two primary antibodies.” for “internalization.”, “(Sigma-aldrich). […]” for “(Sigma-aldrich).”
as §2

Where no end group is shown, it is not given here.

As to “LLGDFFRKSKEKIGKEFKRIVQRIKDFLRNLVPR [LL34]”, the “close association between U1 RNA and SR-B1 (PLA, <40 nm)” value at SR-B1 [1] is “enabled close association”. Further, the “U1 RNA localization with SR-B1” value on SR-B1 [2] is listed as “enabled U1 RNA to localize with SR-B1”. The “close association between U1 RNA and SR-A6 (PLA, <40 nm)” value at SR-A6 was “enabled close association”.

Take LL37: the “close association between U1 RNA and SR-B1 (PLA, <40 nm)” value at SR-B1 [1] is given as “enabled close association”. The “U1 RNA localization with SR-B1” value at SR-B1 [2] is given as “enabled U1 RNA to localize with SR-B1”. The “close association between U1 RNA and SR-A6 (PLA, <40 nm)” value at SR-A6 is “enabled close association”.
